pIC50: −log10 of the molar value. Where two headings read alike, the source gives them in different places.
Test system: Lox-IMVI melanoma cell line
Assay: Lox-IMVI anti-proliferative assay (growth inhibition, Cell Titer-Glo)
Assay type: cell-based, human
In short: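 Growth inhibition is assessed over 72 h in RPMI + 10% FBS at 0.2% DMSO, with ATP-based luminescence used as the viability measure. IC50 is fitted from normalized dose-response data.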

[1] = Homo sapiens, Lox-IMVI anti-proliferative assay, IC50 activity level, read-out: Activity
[2] = Homo sapiens, Lox-IMVI melanoma cell line, anti-proliferative assay, read-out: Activity (IC50 activity level)

| SMILES | pIC50 [1] | further results |
| --- | --- | --- |
| C[C@]1(C(N)=O)CC[C@@H](n2c(Nc3c(F)cc(F)cc3Cl)nc3cnc(NC4CC(F)(F)C4)nc32)CC1 [Example 579, (1s,4s)-4-(8-(2-chloro-4,6-difluorophenylamino)-2-(3,3-difluorocyclobutylamino)-9H-purin-9-yl)-1-methylcyclohexanecarboxamide] | > 6.60 |  |
| C[C@]1(C(N)=O)CC[C@@H](n2c(Nc3c(Cl)cc(Cl)cc3Cl)nc3cnc(NC4CC(F)(F)C4)nc32)CC1 [Example 580, (1s,4s)-4-(2-(3,3-difluorocyclobutylamino)-8-(2,4,6-trichlorophenylamino)-9H-purin-9-yl)-1-methylcyclohexanecarboxamide] | 6.30 to 6.60 |  |
| C[C@]1(C(N)=O)CC[C@@H](n2c(Nc3c(F)cc(Cl)cc3F)nc3cnc(NC4CC(F)(F)C4)nc32)CC1 [Example 581, (1s,4s)-4-(8-(4-chloro-2,6-difluorophenylamino)-2-(3,3-difluorocyclobutylamino)-9H-purin-9-yl)-1-methylcyclohexanecarboxamide] | > 6.60 |  |
| C[C@]1(C(N)=O)CC[C@@H](n2c(Nc3c(Cl)cc(F)cc3Cl)nc3cnc(NC4CC(F)(F)C4)nc32)CC1 [Example 582, (1s,4s)-4-(8-(2,6-dichloro-4-fluorophenylamino)-2-(3,3-difluorocyclobutylamino)-9H-purin-9-yl)-1-methylcyclohexanecarboxamide] | > 6.60 |  |
| C[C@]1(C(N)=O)CC[C@@H](n2c(Nc3c(F)cc(C#N)cc3Cl)nc3cnc(NC4CC(F)(F)C4)nc32)CC1 [Example 583, (1s,4s)-4-(8-(2-chloro-4-cyano-6-fluorophenylamino)-2-(3,3-difluorocyclobutylamino)-9H-purin-9-yl)-1-methylcyclohexanecarboxamide] | > 6.60 |  |
| C[C@]1(C(N)=O)CC[C@@H](n2c(Nc3c(Cl)cc(C(F)(F)F)cc3Cl)nc3cnc(NC4CC(F)(F)C4)nc32)CC1 [Example 584, (1s,4s)-4-(8-(2,6-dichloro-4-(trifluoromethyl)phenylamino)-2-(3,3-difluorocyclobutylamino)-9H-purin-9-yl)-1-methylcyclohexanecarboxamide] | < 6.00 |  |
| NC(=O)[C@H]1CC[C@@H](n2c(Nc3c(Cl)cc(F)cc3Cl)nc3cnc(N[C@H]4CCC(F)(F)C4)nc32)CC1 [Example 585, (1R,4s)-4-(8-(2,6-dichloro-4-fluorophenylamino)-2-((S)-3,3-difluorocyclopentylamino)-9H-purin-9-yl)cyclohexanecarboxamide] | 6.00 to 6.30 |  |
| NC(=O)[C@H]1CC[C@@H](n2c(Nc3c(Cl)cc(F)cc3Cl)nc3cnc(N[C@@H]4CCC(F)(F)C4)nc32)CC1 [Example 586, (1S,4s)-4-(8-(2,6-dichloro-4-fluorophenylamino)-2-((R)-3,3-difluorocyclopentylamino)-9H-purin-9-yl)cyclohexanecarboxamide] | > 6.60 |  |
| NC(=O)[C@H]1CC[C@@H](n2c(Nc3c(F)cc(Cl)cc3F)nc3cnc(N[C@H]4CCC(F)(F)C4)nc32)CC1 [Example 587, (1R,4s)-4-(8-(4-chloro-2,6-difluorophenylarnino)-2-((S)-3,3-difluorocyclopentylamino)-9H-purin-9-yl)cyclohexanecarboxamide] | 6.30 to 6.60 |  |
| NC(=O)[C@H]1CC[C@@H](n2c(Nc3c(F)cc(Cl)cc3F)nc3cnc(N[C@@H]4CCC(F)(F)C4)nc32)CC1 [Example 588, (1S,4s)-4-(8-(4-chloro-2,6-difluorophenylamino)-2-((R)-3,3-difluorocyclopentylamino)-9H-purin-9-yl)cyclohexanecarboxamide] | > 6.60 |  |
| NC(=O)[C@H]1CC[C@@H](n2c(Nc3c(F)cc(F)cc3Cl)nc3cnc(N[C@H]4CCC(F)(F)C4)nc32)CC1 [Example 589, (1R,4s)-4-(8-(2-chloro-4,6-difluorophenylamino)-2-((S)-3,3-difluorocyclopentylamino)-9H-purin-9-yl)cyclohexanecarboxamide] | 6.30 to 6.60 |  |
| NC(=O)[C@H]1CC[C@@H](n2c(Nc3c(F)cc(F)cc3Cl)nc3cnc(N[C@@H]4CCC(F)(F)C4)nc32)CC1 [Example 590, (1S,4s)-4-(8-(2-chloro-4,6-difluorophenylamino)-2-((R)-3,3-difluorocyclopentylamino)-9H-purin-9-yl)cyclohexanecarboxamide] | > 6.60 |  |
| NC(=O)[C@H]1CC[C@@H](n2c(Nc3c(F)cc(Cl)cc3Cl)nc3cnc(N[C@H]4CCC(F)(F)C4)nc32)CC1 [Example 591, (1R,4s)-4-(8-(2,4-dichloro-6-fluorophenylamino)-2-((S)-3,3-difluorocyclopentylamino)-9H-purin-9-yl)cyclohexanecarboxamide] | 6.30 to 6.60 |  |
| NC(=O)[C@H]1CC[C@@H](n2c(Nc3c(F)cc(Cl)cc3Cl)nc3cnc(N[C@@H]4CCC(F)(F)C4)nc32)CC1 [Example 592, (1S,4s)-4-(8-(2,4-dichloro-6-fluorophenylamino)-2-((R)-3,3-difluorocyclopentylamino)-9H-purin-9-yl)cyclohexanecarboxamide] | > 6.60 |  |
| NC(=O)[C@H]1CC[C@@H](n2c(Nc3c(F)cc(F)cc3F)nc3cnc(N[C@H]4CCC(F)(F)C4)nc32)CC1 [Example 593, (1R,4s)-4-(2-((S)-3,3-difluorocyclopentylamino)-8-(2,4,6-trifluorophenylamino)-9H-purin-9-yl)cyclohexanecarboxamide] | 6.30 to 6.60 |  |
| NC(=O)[C@H]1CC[C@@H](n2c(Nc3c(Cl)cc(Cl)cc3Cl)nc3cnc(N[C@H]4CCC(F)(F)C4)nc32)CC1 [Example 594, (1R,4s)-4-(2-((S)-3,3-difluorocyclopentylamino)-8-(2,4,6-trichlorophenylamino)-9H-purin-9-yl)cyclohexanecarboxamide] | 6.30 to 6.60 |  |
| NC(=O)[C@H]1CC[C@@H](n2c(Nc3c(Cl)cc(OC(F)(F)F)cc3Cl)nc3cnc(N[C@@H]4CCC[C@H](O)C4)nc32)CC1 [Example 595, (1S,4s)-4-(8-(2,6-dichloro-4-(trifluoromethoxy)phenylamino)-2-((1R,3S)-3-hydroxycyclohexylamino)-9H-purin-9-yl)cyclohexanecarboxamide] | < 6.00 |  |
| NC(=O)[C@H]1CC[C@@H](n2c(Nc3c(Cl)cc(OC(F)(F)F)cc3Cl)nc3cnc(NC4CCC(F)(F)CC4)nc32)CC1 [Example 596, (1s,4s)-4-(8-(2,6-dichloro-4-(trifluoromethoxy)phenylamino)-2-(4,4-difluorocyclohexylamino)-9H-purin-9-yl)cyclohexanecarboxamide] | < 6.00 |  |
| NC(=O)[C@H]1CC[C@@H](n2c(Nc3c(Cl)cc(OC(F)(F)F)cc3Cl)nc3cnc(NC4CCCC4)nc32)CC1 [Example 597, (1s,4s)-4-(2-(cyclopentylamino)-8-(2,6-dichloro-4-(trifluoromethoxy)phenylamino)-9H-purin-9-yl)cyclohexanecarboxamide] | < 6.00 |  |
| C[C@]1(C(N)=O)CC[C@@H](n2c(Nc3c(Cl)cc(OC(F)(F)F)cc3Cl)nc3cnc(NC4CCC4)nc32)CC1 [Example 598, (1s,4s)-4-(2-(cyclobutylamino)-8-(2,6-dichloro-4-(trifluoromethoxy)phenylamino)-9H-purin-9-yl)-1-methylcyclohexanecarboxamide] | < 6.00 |  |
| C[C@]1(C(N)=O)CC[C@@H](n2c(Nc3c(Cl)cc(C#N)cc3Cl)nc3cnc(NC4CCC4)nc32)CC1 [Example 599, (1s,4s)-4-(2-(cyclobutylamino)-8-(2,6-dichloro-4-cyanophenylamino)-9H-purin-9-yl)-1-methylcyclohexanecarboxamide] |  | pIC50 [2]: > 6.60 |
| C[C@]1(C(N)=O)CC[C@@H](n2c(Nc3c(F)cc(C#N)cc3Cl)nc3cnc(NC4CCC4)nc32)CC1 [Example 600, (1s,4s)-4-(8-(2-chloro-4-cyano-6-fluorophenylamino)-2-(cyclobutylamino)-9H-purin-9-yl)-1-methylcyclohexanecarboxamide] |  | pIC50 [2]: > 6.60 |
| C[C@]1(C(N)=O)CC[C@@H](n2c(Nc3c(F)cc(C#N)cc3F)nc3cnc(NC4CCC4)nc32)CC1 [Example 601, (1s,4s)-4-(8-(4-cyano-2,6-difluorophenylamino)-2-(cyclobutylamino)-9H-purin-9-yl)-1-methylcyclohexanecarboxamide] |  | pIC50 [2]: > 6.60 |
| C[C@]1(C(N)=O)CC[C@@H](n2c(Nc3c(Cl)cc(C(F)(F)F)cc3Cl)nc3cnc(NC4CCC4)nc32)CC1 [Example 602, (1s,4s)-4-(2-(cyclobutylamino)-8-(2,6-dichloro-4-(trifluoromethyl)phenylamino)-9H-purin-9-yl)-1-methylcyclohexanecarboxamide] |  | pIC50 [2]: < 6.00 |
| C[C@]1(C(N)=O)CC[C@@H](n2c(Nc3c(Cl)cc(Cl)cc3Cl)nc3cnc(NC4CCC4)nc32)CC1 [Example 603, (1s,4s)-4-(2-(cyclobutylamino)-8-(2,4,6-trichlorophenylamino)-9H-purin-9-yl)-1-methylcyclohexanecarboxamide] |  | pIC50 [2]: > 6.60 |
| C[C@]1(C(N)=O)CC[C@@H](n2c(Nc3c(F)cc(F)cc3Cl)nc3cnc(NC4CCC4)nc32)CC1 [Example 604, (1s,4s)-4-(8-(2-chloro-4,6-difluorophenylamino)-2-(cyclobutylamino)-9H-purin-9-yl)-1-methylcyclohexanecarboxamide] |  | pIC50 [2]: > 6.60 |
| C[C@]1(C(N)=O)CC[C@@H](n2c(Nc3c(F)cc(Cl)cc3Cl)nc3cnc(NC4CCC4)nc32)CC1 [Example 605, (1s,4s)-4-(2-(cyclobutylamino)-8-(2,4-dichloro-6-fluorophenylamino)-9H-purin-9-yl)-1-methylcyclohexanecarboxamide] |  | pIC50 [2]: > 6.60 |
| C[C@]1(C(N)=O)CC[C@@H](n2c(Nc3c(Cl)cc(F)cc3Cl)nc3cnc(NC4CCC4)nc32)CC1 [Example 606, (1s,4s)-4-(2-(cyclobutylamino)-8-(2,6-dichloro-4-fluorophenylamino)-9H-purin-9-yl)-1-methylcyclohexanecarboxamide] |  | pIC50 (Lox-IMVI melanoma cell line, anti-proliferative assay, read-out: Activity (IC50 activity level)): > 6.60 |
